# Measured values taken from article PMC6261308 (Advanced functional materials, 2018).
# Test: Acute toxicity: hemograms and serum biochemistry
# Type: in vivo, Balb/c mice
# Conditions: 2.5 mg kg^−1 of drug content three times a week
compound,measurement,value
"COc1cccc2c1C(=O)c1c(O)c3c(c(O)c1C2=O)C[C@@](O)(/C(CO)=N/NC(=O)CCCCCN1C(=O)C=CC1=O)C[C@@H]3O[C@H]1C[C@H](N)[C@H](O)[C@H](C)O1 [aldox, aldoxorubicin]",serum creatine kinase (CK) level,increased CK level
